Where a SMILES comes first, the peptide text is derived from it. The star is where a group is joined. X1 = CSCCc1ccc(NC(=O)NCc2ccc3c(c2)CN(C2CCC(=O)N(CN*)C2=O)C3=O)cc1Cl; Hexanoyl(6-maleimido) = O=C1C=CC(=O)N1CCCCCC(=O)*
T1: papain (Carica papaya, UniProt P00784)
T1 sequence (P00784 134-345): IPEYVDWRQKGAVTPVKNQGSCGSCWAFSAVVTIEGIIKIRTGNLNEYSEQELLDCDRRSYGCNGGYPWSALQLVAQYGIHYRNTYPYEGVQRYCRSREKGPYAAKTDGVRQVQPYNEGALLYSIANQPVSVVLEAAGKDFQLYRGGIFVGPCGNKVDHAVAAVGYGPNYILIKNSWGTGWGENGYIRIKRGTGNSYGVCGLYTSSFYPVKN


What was measured:
papain = target: T1, papain; experiment: Papain digestion 2 of linker-payload compounds, in vitro payload release; assay type: biochemical; conditions: for % Payload Released / By-Products: GGFG*G (payload-CH2NHC(O)CH2NH2, cleavage between two glycines of linker) / By-Products: uncleaved: 10 μM compound, papain 2 molar equivalents, 2 hours; for % Payload Released: PBS pH 7.4, 5% DMA, room temperature; for By-Products: GGFG*G (payload-CH2NHC(O)CH2NH2, cleavage between two glycines of linker) / By-Products: uncleaved: PBS pH 7.4, room temperature; for yield of desired payload released by papain (in words): papain treatment
Method: 10 μM of either Compound (XL), Compound (XI), Compound (XIV), Compound (XV), Compound (XII), or Compound (XVII) (PBS pH 7.4, 5% DMA co-solvent) was incubated with papain (2 molar equivalents) at room temperature for 2 hours with gentle shaking. The digests were extracted with 5 volumes of ice-cold acetonitrile and dried down, followed by reconstitution in 95:5:0.1 water:acetonitrile:formic acid. The samples were submitted for LC-MS analysis (Thermo Exploris 240) and using the appropriate reference standards, the released payload and/or incompletely cleaved linker byproducts were identified and quantified.

β-glucuronidase = target: T2, β-glucuronidase (Escherichia coli, UniProt P05804); experiment: β-Glucuronidase digestion, in vitro payload release; assay type: biochemical
T2 construct: purchased Sigma Type IX-A
T2 sequence (P05804 whole entry): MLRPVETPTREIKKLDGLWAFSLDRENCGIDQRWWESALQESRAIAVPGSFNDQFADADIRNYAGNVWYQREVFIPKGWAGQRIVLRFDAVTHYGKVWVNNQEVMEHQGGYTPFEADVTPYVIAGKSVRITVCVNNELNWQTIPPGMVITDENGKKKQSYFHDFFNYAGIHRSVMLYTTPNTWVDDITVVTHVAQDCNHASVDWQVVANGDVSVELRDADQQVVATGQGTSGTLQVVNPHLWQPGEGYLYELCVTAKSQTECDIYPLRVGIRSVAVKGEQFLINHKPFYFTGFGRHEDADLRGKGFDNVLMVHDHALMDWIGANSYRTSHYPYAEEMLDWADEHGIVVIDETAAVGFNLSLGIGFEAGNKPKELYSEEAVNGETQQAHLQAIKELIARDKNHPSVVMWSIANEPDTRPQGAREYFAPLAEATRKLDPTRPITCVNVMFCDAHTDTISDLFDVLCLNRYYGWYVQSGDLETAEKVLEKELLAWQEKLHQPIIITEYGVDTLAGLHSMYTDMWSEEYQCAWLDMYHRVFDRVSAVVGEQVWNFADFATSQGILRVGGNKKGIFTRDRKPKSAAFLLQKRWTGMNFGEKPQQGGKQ
Method: 10 μM Compound (XLI) was incubated with β-glucuronidase (Sigma, Type IX-A; 1 mg/mL solution in PBS, […]) and the reaction mixture was incubated at 37° C. for 3 hours with gentle shaking. The digests were extracted with 5 volumes of ice-cold acetonitrile and dried down, followed by reconstitution in 95:5:0.1 water:acetonitrile:formic acid. The samples were submitted for LC-MS analysis (Thermo Exploris 240) and using the appropriate reference standards, the released payload and/or incompletely cleaved linker byproducts were identified and quantified.

CD33 = target: T3, CD33 (UniProt P20138 18-364, limits assumed); experiment: flow cytometry binding to MV4-11 cells (procedure of Example 10)
T3 construct: whole, on cells; Endogenous antigen on the cell line; also called CD33 surface antigens
T3 sequence (P20138 18-364 limits assumed): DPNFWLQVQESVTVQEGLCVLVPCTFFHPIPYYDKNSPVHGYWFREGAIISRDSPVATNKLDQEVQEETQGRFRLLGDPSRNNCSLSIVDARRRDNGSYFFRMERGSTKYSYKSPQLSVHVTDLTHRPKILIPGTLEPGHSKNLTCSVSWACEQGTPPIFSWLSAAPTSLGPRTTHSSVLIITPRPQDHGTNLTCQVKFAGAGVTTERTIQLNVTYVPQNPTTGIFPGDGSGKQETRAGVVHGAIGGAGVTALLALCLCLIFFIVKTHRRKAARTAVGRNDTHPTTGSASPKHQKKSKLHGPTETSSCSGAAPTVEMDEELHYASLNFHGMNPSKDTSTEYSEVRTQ

| EC50 (CD33) [pM] | Molecule | % Payload Released (papain) [%] | By-Products: GGFG*G (payload-CH2NHC(O)CH2NH2, cleavage between two glycines of linker) (papain) | By-Products: uncleaved (papain) | yield of desired payload released by papain (in words) (papain) | % Payload Released (β-glucuronidase; 10 μM compound, β-glucuronidase, 37° C., 3 hours) [%] | yield of desired payload released by β-glucuronidase (in words) (β-glucuronidase; β-glucuronidase treatment) |
| --- | --- | --- | --- | --- | --- | --- | --- |
|  | O=C(CCCCCN1C(=O)C=CC1=O)NCC(=O)NCC(=O)N[C@@H](Cc1ccccc1)C(=O)NCC(=O)NCC(=O)NCN1C(=O)CCC(N2Cc3c(C#CCCCNC(=O)c4ccc(NC(=O)[C@@H]5NC6(CCCCC6)[C@@]6(C(=O)Nc7cc(Cl)ccc76)[C@H]5c5cccc(Cl)c5F)cc4)cccc3C2=O)C1=O (stereo partly drawn) [Compound (XII), (3′R,4'S,5′R)-6″-chloro-4′-(3-chloro-2-fluorophenyl)-N-(4-{[5-(2-{1-[(2-{2-[(2S)-2-(2-{2-[6-(2,5-dioxopyrrol-1-yl)hexanamido]acetamido}acetamido)-3-phenylpropanamido]acetamido}acetamido)methyl]-2,6-dioxopiperidin-3-yl}-1-oxo-3H-isoindol-4-yl)pent-4-yn-1-yl]carbamoyl}phenyl)-2″-oxo-1″H-dispiro[cyclohexane-1,2′-pyrrolidine-3′,3″-indole]-5′-carboxamide] | 9.4 | 57.0%, | uncleaved 33.6% | lower yields of the desired payload |  |  |
|  | Cc1sc2c(c1C)C(c1ccc(Cl)cc1)=N[C@@H](CC(=O)NCCCCCC(=O)NCc1cccc3c1C(=O)N(C1CCC(=O)N(CNC(=O)CNC(=O)CNC(=O)[C@H](Cc4ccccc4)NC(=O)CNC(=O)CNC(=O)CCCCCN4C(=O)C=CC4=O)C1=O)C3=O)c1nnc(C)n1-2 (stereo partly drawn) [Compound (XIV), 6-{2-[(9S)-7-(4-chlorophenyl)-4,5,13-trimethyl-3-thia-1,8,11,12-tetraazatricyclo[8.3.0.0^{2,6}]trideca-2(6),4,7,10,12-pentaen-9-yl]acetamido}-N-[(2-{1-[(2-{2-[(2S)-2-(2-{2-[6-(2,5-dioxopyrrol-1-yl)hexanamido]acetamido}acetamido)-3-phenylpropanamido]acetamido}acetamido)methyl]-2,6-dioxopiperidin-3-yl}-1,3-dioxoisoindol-4-yl)methyl]hexanamide] | 11.6 | 40.5%, | uncleaved 47.9% | lower yields of the desired payload |  |  |
|  | Cn1cc(-c2cc(NC(=O)CCCCC(=O)NCCCCNc3cccc4c3C(=O)N(C3CCC(=O)N(CNC(=O)CNC(=O)[C@H](Cc5ccccc5)NC(=O)CNC(=O)CNC(=O)CCCCCN5C(=O)C=CC5=O)C3=O)C4=O)ccc2Oc2ccc(F)cc2F)c2cc[nH]c2c1=O.O=C(O)C(F)(F)F (stereo partly drawn) [Compound (XL), N′-[4-(2,4-difluorophenoxy)-3-{6-methyl-7-oxo-1H-pyrrolo[2,3-c]pyridin-4-yl}phenyl]-N-[4-({2-[1-({2-[(2S)-2-(2-{2-[6-(2,5-dioxopyrrol-1-yl)hexanamido]acetamido}acetamido)-3-phenylpropanamido]acetamido}methyl)-2,6-dioxopiperidin-3-yl]-1,3-dioxoisoindol-4-yl}amino)butyl]hexanediamide; trifluoroacetic acid] | 90.2 |  |  | excellent yield |  |  |
|  | CNCCOCCc1ccc(NC(=O)NCc2ccc3c(c2)CN(C2CCC(=O)N(CN(C)C(=O)OCc4ccc(O[C@@H]5O[C@H](C(=O)O)[C@@H](O)[C@H](O)[C@H]5O)c(NC(=O)CCNC(=O)CCN5C(=O)C=CC5=O)c4)C2=O)C3=O)cc1Cl (stereo partly drawn) [Compound (XLI), (2S,3S,4S,5R,6S)-6-[4-({[({3-[5-({[(3-chloro-4-{2-[2-(methylamino)ethoxy]ethyl}phenyl)carbamoyl]amino}methyl)-1-oxo-3H-isoindol-2-yl]-2,6-dioxopiperidin-1-yl}methyl)(methyl)carbamoyl]oxy}methyl)-2-{3-[3-(2,5-dioxopyrrol-1-yl)propanamido]propanamido}phenoxy]-3,4,5-trihydroxyoxane-2-carboxylic acid] |  |  |  |  | 90.9 | excellent yield |
|  | N#Cc1ccc(O[C@H]2CC[C@H](NC(=O)c3ccc(N4CCC(CN5CCN(c6cc7c(cc6F)C(=O)N(C6CCC(=O)N(CNC(=O)CNC(=O)CNC(=O)[C@H](Cc8ccccc8)NC(=O)CNC(=O)CNC(=O)CCCCCN8C(=O)C=CC8=O)C6=O)C7=O)CC5)CC4)nn3)CC2)cc1Cl (stereo partly drawn) [Compound (XV), 6-(4-{[4-(2-{1-[(2-{2-[(2S)-2-(2-{2-[6-(2,5-dioxopyrrol-1-yl)hexanamido]acetamido}acetamido)-3-phenylpropanamido]acetamido}acetamido)methyl]-2,6-dioxopiperidin-3-yl}-6-fluoro-1,3-dioxoisoindol-5-yl)piperazin-1-yl]methyl}piperidin-1-yl)-N-[(1r,4r)-4-(3-chloro-4-cyanophenoxy)cyclohexyl]pyridazine-3-carboxamide] | 5.8 | 78.3%, | uncleaved 15.8% | lower yields of the desired payload |  |  |
|  | CSCCc1ccc(NC(=O)NCc2ccc3c(c2)CN(C2CCC(=O)N(CNC(=O)CNC(=O)CNC(=O)[C@H](Cc4ccccc4)NC(=O)CNC(=O)CNC(=O)CCCCCN4C(=O)C=CC4=O)C2=O)C3=O)cc1Cl (stereo partly drawn) [Compound (XVII), N-{[({[(1S)-1-[({[({[3-(5-{[({3-chloro-4-[2-(methylsulfanyl)ethyl]phenyl}carbamoyl)amino]methyl}-1-oxo-3H-isoindol-2-yl)-2,6-dioxopiperidin-1-yl]methyl}carbamoyl)methyl]carbamoyl}methyl)carbamoyl]-2-phenylethyl]carbamoyl}methyl)carbamoyl]methyl}-6-(2,5-dioxopyrrol-1-yl)hexanamide] ({Hexanoyl(6-maleimido)}-GGFGG-X1) | 10.7 | 72.5%, | uncleaved 16.8% | lower yields of the desired payload |  |  |
|  | CNCCOCCc1ccc(NC(=O)NCc2ccc3c(c2)CN(C2CCC(=O)N(CNC(=O)CNC(=O)[C@H](Cc4ccccc4)NC(=O)CNC(=O)CNC(=O)CCCCCN4C(=O)C=CC4=O)C2=O)C3=O)cc1Cl (stereo partly drawn) [Compound (XVIII), N-{[({[(1S)-1-({[({3-[5-({[(3-chloro-4-{2-[2-(methylamino)ethoxy]ethyl}phenyl)carbamoyl]amino}methyl)-1-oxo-3H-isoindol-2-yl]-2,6-dioxopiperidin-1-yl}methyl)carbamoyl]methyl}carbamoyl)-2-phenylethyl]carbamoyl}methyl)carbamoyl]methyl}-6-(2,5-dioxopyrrol-1-yl)hexanamide] | 97.8 |  |  | excellent yield |  |  |
| 270 | CD33-D Antibody-Compound (XL) conjugate (antibody, V domains shown, Compound (XL) linker-payload on reduced interchain cysteine of the constant region, outside this domain; Compound (XL) linker-payload (maleimide) on reduced interchain cysteines of the constant regions, outside this domain; 8.0 Compound (XL)/antibody by LC-MS (Example 2-1), Antibody-drug conjugate (BRD4 degrader payload)) VH: EVQLVQSGAEVKKPGSSVKVSCKASGYTITDSNIHWVRQAPGQSLEWIGYIYPYNGGTDYNQKFKNRATLTVDNPTNTAYMELSSLRSEDTAFYYCVNGNPWLAYWGQGTLVTVSS VL: DIQLTQSPSTLSASVGDRVTITCRASESLDNYGIRFLTWFQQKPGKAPKLLMYAASNQGSGVPSRFSGSGSGTEFTLTISSLQPDDFATYYCQQTKEVPWSFGQGTKVEVK |  |  |  |  |  |  |
| 220 | CD33-D Antibody-Compound (XIV) conjugate (antibody, V domains shown, Compound (XIV) linker-payload on reduced interchain cysteine of the constant region, outside this domain; Compound (XIV) linker-payload on reduced interchain cysteines of the constant regions, outside this domain; 7.9 Compound (XIV)/antibody by LC-MS (Example 2-2), Antibody-drug conjugate) VH: EVQLVQSGAEVKKPGSSVKVSCKASGYTITDSNIHWVRQAPGQSLEWIGYIYPYNGGTDYNQKFKNRATLTVDNPTNTAYMELSSLRSEDTAFYYCVNGNPWLAYWGQGTLVTVSS VL: DIQLTQSPSTLSASVGDRVTITCRASESLDNYGIRFLTWFQQKPGKAPKLLMYAASNQGSGVPSRFSGSGSGTEFTLTISSLQPDDFATYYCQQTKEVPWSFGQGTKVEVK |  |  |  |  |  |  |
| 220 | CD33-D antibody (antibody, V domains shown, also called anti-CD33 antibody CD33-D) VH: EVQLVQSGAEVKKPGSSVKVSCKASGYTITDSNIHWVRQAPGQSLEWIGYIYPYNGGTDYNQKFKNRATLTVDNPTNTAYMELSSLRSEDTAFYYCVNGNPWLAYWGQGTLVTVSS VL: DIQLTQSPSTLSASVGDRVTITCRASESLDNYGIRFLTWFQQKPGKAPKLLMYAASNQGSGVPSRFSGSGSGTEFTLTISSLQPDDFATYYCQQTKEVPWSFGQGTKVEVK |  |  |  |  |  |  |

Source: patent US20250144230A1, “LINKERS FOR USE IN ANTIBODY DRUG CONJUGATES” (Orum Therapeutics, Inc., priority 2021, published 2025)
